Measurements taken from patent publication US8501806B2, “Methods for preventing or reducing colon carcinogenesis” (Nogra Pharma Limited, priority 2008, dated 2013).

Legend:
[1] = system: established CT26-derived tumors; assay: Growth of established CT26 xenografts; format: in vivo, Balb/c mice; conditions: subcutaneously 80 mg/kg mouse/day for 2 weeks from day 14
Method: CT26 cells (1×10^5 cells in 300 μl PBS 1×) were injected subcutaneously into the flank of Balb/c mice, whose fur was shaved and depilated. Five groups of 10 mice each were implanted with CT26. The first group received daily subcutaneously 300 μl PBS (control), the remaining groups received daily subcutaneously compound 14 at a final dose of 1, 4, 8, or 12 mg/kg/mouse dissolved in 300 μl PBS. Both compound 14 and PBS were administered starting on day 3. Further experimentation was performed to assess whether compound 14 had anti-cancer activity when administered systemically. […] Mice were monitored over the time for weight loss. After 2 weeks, mice were sacrificed, tumors were photographed, then excised and their mass calculated according to the following formula: ½×(short diameter)×(long diameter)×(height). Total extracts were prepared from xenografts and analyzed for cyclin D1 protein content by Western blotting using a commercially available antibody (Santa Cruz Biotechnology). […] After 2 weeks, mice with similar tumor size, determined by caliper measurements, were divided into three groups of 8 mice each. […] Mice were monitored over the time for weight loss. After 2 weeks, mice were sacrificed, tumors were photographed, then excised and their mass calculated as described above. […] Mice were monitored over the time and sacrificed at day 28.

HCT-116 cells = assay: CFSE cell proliferation assay, HCT-116 cells; format: cell-based, human; conditions: equivalent concentrations; data not shown
Method: All reagents used in Examples 1-3 were from Sigma-Aldrich (Milan, Italy) unless specified. Compounds were dissolved as a 25 mM stock solution in culture medium, and the pH of the solution was adjusted to 7.4, if necessary, with NaOH. The human CRC cell lines, HCT-116 and HT-29 (expressing either wild-type or mutated p53 respectively), were maintained in McCoy's 5A supplemented with 10% fetal bovine serum (FBS), 1% penicillin/streptomycin, and 50 μg/ml gentamycin. The murine CRC cell line, CT26, was maintained in RPMI 1640 medium supplemented with 10% FBS and 1% penicillin/streptomycin.
For cell growth assays, serum-starved HCT-116, HT-29, and CT26 cells were plated in appropriate complete medium at 2×10^5 cells/ml/well in 6-well culture dishes and allowed to adhere overnight. Cells were then labeled with carboxyfluorescein diacetate succinimidyl ester (CFSE) (Invitrogen, Milan Italy) at 37° C. according to the manufacturer's instruction. After 30 minutes, the medium was removed and fresh media containing 0.05% bovine serum albumin (BSA), and increasing doses of 5-ASA or disclosed compounds were added. After 24 hours, cells were collected, washed twice with PBS 1×, and then incubated with 5 μg/ml of PI for 15 minutes, at 4° C. in the dark. CFSE and/or PI-positive cells were determined by flow cytometry (Becton Dickinson, FACSCalibur, Milan, Italy). To determine whether the negative effect of compound 14 (2-methoxy-5-amino-N-hydroxybenzamide) on proliferation was reversible, cells were cultured in the presence or absence of compound 14 (1.5 and 3 mM) for 24 hours (1st culture). Afterwards, cells were either left untreated or extensively washed and cultured with medium in the absence of compound 14 for additional 24 hours (2nd culture). The percentage of proliferating cells was then evaluated by flow cytometry.

Nc1ccc(O)c(C(=O)O)c1 [5-ASA, 5-amino salicylic acid, reference compound]
tumor size of established CT26-derived tumors vs PBS [1]: not 5-ASA significantly reduced

OC[C@@H](O)[C@@H](O)[C@H](O)[C@H](O)CO [mannitol, reference compound]
effect on cell proliferation (osmotic control) (HCT-116 cells): No effect
